Results as given in ChEMBL document CHEMBL1141439, “An antiproliferative bis-prenylated quinone from the New Zealand brown alga Perithalia capillaris” (J Nat Prod, 2007).

Columns and labels:
[1] = system: Neutrophil; assay: Inhibition of superoxide production in human neutrophils; assay type: functional, cell-based
[2] = system: HL-60; assay: Antiproliferative activity against human HL60 cells; assay type: functional, cell-based

`C=CC(C)(C)c1cc2c(cc1O)C=CC(C)(C)O2` showed an IC50 [1] of 238 µM and an IC50 [2] of 5.6 µM.

Molecule `C=CC(C)(C)C1=CC(=O)C(CC=C(C)C)=CC1=O` has an IC50 [1] of 2.1 µM and an IC50 [2] of 0.34 µM.

Molecule `O=C1C2=C(C=CC(C(=O)O)N2)C(=O)C2=C1NCCS2(=O)=O` (stereo not drawn) has an IC50 [1] of 1.5 µM and an IC50 [2] of 73 µM.

For `C=CC(C)(C)c1ccc(O)c(CC=C(C)C)c1`, the IC50 [1] was 29 µM and the IC50 [2] was 2.7 µM.
